Results from US12364733B1, “Method for treating septic shock” (Inotrem, priority 2018, dated 2025).

Columns and labels:
septic shock patients = experiment: Phase IIa clinical trial with nangibotide: days alive and free from vasopressor, IMV or CRRT; type: in vivo, human; conditions: for difference in the number of CRRT (continuous renal replacement therapy) free days alive vs. placebo / difference in the number of IMV (invasive mechanical ventilation) free days alive vs. placebo / difference in the number of vasopressor free days alive vs. placebo: day 0 to day 28
Procedure: This was a randomized, double-blind, two-stage, placebo-controlled study. As described in FIG. 7, the study was composed of 2 stages with a similar treatment regimen, in which 0.3, 1.0 or 3.0 mg/kg/h of nangibotide (corresponding to peptide LR12, having an amino acid sequence as set forth in SEQ ID NO: 9, also known as motrem) was tested versus placebo. All patients with a diagnosis of septic shock were considered for study participation. All potential study patients underwent standard care management procedures. Patients with evidence of septic shock according to the Sepsis-3 definition (Singer et al, JAMA 2016) were considered for inclusion (i.e., patients suffering from sepsis and having (i) persisting hypotension requiring vasopressors to maintain their mean arterial pressure ≥65 mm Hg and (ii) a serum lactate level >2 mmol/L (18 mg/dL) despite adequate volume resuscitation).
After screening for eligibility, patients were randomized to one of the treatment arms. Then, they received either a 5 mg/kg loading dose of nangibotide over 15 minutes followed by a continuous intravenous (i.v.) infusion of nangibotide or a matching placebo on top of standard of care. Treatment with study drug was initiated as early as possible, but no later than 24 hours after the onset of septic shock, defined by the start of vasopressor therapy. Patients were treated until 12 (±2) hours after the resolution of their septic shock (defined as vasopressor withdrawal) with a maximum treatment duration of 5 days (120 hours).
Adverse events (AEs) were coded using the MedDRA dictionary version 18.1. Treatment-emergent adverse events (TEAEs) were summarized and listed. Analysis was performed in 49 septic shock patients. The demographic and baseline characteristics were summarized in a descriptive fashion within each population: categorical variables were summarized by contingency tables (frequencies and percentages). sTREM-1 levels at day 1 were also described (mean, standard deviation, standard error, median, quartiles and range, minimum and maximum values). Mortality rates were reported by frequency and percentage. For continuous endpoints, i.e., the sequential organ failure assessment (SOFA), missing data were imputed using LOCF (Last Observation Carry-Forward). For time-to-event analyses, i.e., duration of invasive mechanical ventilation (IMV), duration of continuous renal replacement therapy (CRRT), survival, censored data techniques were utilized. In addition, a sensitivity analysis of time to event data (except survival) was performed using censoring at maximum limit for the corresponding observation period (i.e., either day 28 or day 90). […] The following comparisons were made: each nangibotide dose arm to placebo, all nangibotide doses combined versus placebo, and dose-response using an ordinal trend test. Exploratory composite endpoint: incidence (number and proportion) of patients alive at day 28 and free of vasopressor, free of IMV and free of CRRT were summarized by treatment and compared between treatments with a Fisher's exact test. For pharmacodynamic markers, log transformed data were represented as percentage change from baseline at day 5 or End of Infusion (EOI) if end of infusion was stopped before day 5. […] “All nangibotide” refers to analyses obtained by pooling data from 0.3, 1 and 3 mg/kg/h nangibotide-treated groups.

[1] = tested on: anti-nangibotide antibodies; experiment: Immunogenicity: anti-nangibotide antibodies in serum by indirect ELISA; type: in vivo, human; conditions: baseline, day 8 and day 28
Procedure: Anti-nangibotide antibodies in serum were evaluated at baseline, day 8 and day 28, by an indirect ELISA method validated according to methods described by Shankar et al. (J Pharm Biomed Anal. 2008 Dec. 15; 48(5):1267-81) and EMA guidance on immunogenicity assessment of biotechnology-derived therapeutic proteins (EMEA/CHMP/BMWP/14327/2006 issued on April 2008). Screening samples determined as positive were further assessed using the confirmatory assay where the cut point was established to have 0.1% of false positive samples (Shankar et al., J Pharm Biomed Anal. 2008 Dec. 15; 48(5):1267-81). […] The sensitivity of the assay was established to be 0.3125 pg/mL.

[2] = baseline high sTREM-1 subgroup, 0.3 mg/kg/h
[3] = baseline high sTREM-1 subgroup, 3 mg/kg/h
[4] = baseline high sTREM-1 subgroup, all nangibotide
[5] = baseline low sTREM-1 subgroup, 0.3 mg/kg/h
[6] = baseline low sTREM-1 subgroup, 3 mg/kg/h
[7] = baseline low sTREM-1 subgroup, all nangibotide
[8] = whole population, all nangibotide

In the case of “nangibotide (LQEEDAGEYGCM; TLT-1 peptide)”, the “proportion of patients alive and free of any medical support at day 28” value (septic shock patients; all nangibotide group, patients with high circulating sTREM-1 at baseline (above 433 pg/mL), placebo 40%) is reported as 70%, the “difference in the number of CRRT (continuous renal replacement therapy) free days alive vs. placebo” value (septic shock patients; [2]) is reported as 8.67 days and the “difference in the number of IMV (invasive mechanical ventilation) free days alive vs. placebo” value (septic shock patients; [2]) is reported as 2.63 days. For the same substance, the “difference in the number of vasopressor free days alive vs. placebo” value (septic shock patients; [2]) was 4.07 days, the “difference in the number of CRRT (continuous renal replacement therapy) free days alive vs. placebo” value (septic shock patients; [3]) was 7.37 days and the “difference in the number of IMV (invasive mechanical ventilation) free days alive vs. placebo” value (septic shock patients; [3]) was 4.30 days. The “difference in the number of vasopressor free days alive vs. placebo” value (septic shock patients; [3]) was -0.48 days, the “difference in the number of CRRT (continuous renal replacement therapy) free days alive vs. placebo” value (septic shock patients; [4]) was 7.85 days and the “difference in the number of IMV (invasive mechanical ventilation) free days alive vs. placebo” value (septic shock patients; [4]) was 5.63 days. For the same substance, the “difference in the number of vasopressor free days alive vs. placebo” value (septic shock patients; [4]) was 2.94 days, the “difference in the number of CRRT (continuous renal replacement therapy) free days alive vs. placebo” value (septic shock patients; [5]) was 1.43 days and the “difference in the number of IMV (invasive mechanical ventilation) free days alive vs. placebo” value (septic shock patients; [5]) was 3 days. For the same substance, the “difference in the number of vasopressor free days alive vs. placebo” value (septic shock patients; [5]) was 2.29 days, the “difference in the number of CRRT (continuous renal replacement therapy) free days alive vs. placebo” value (septic shock patients; [6]) was 0.89 days and the “difference in the number of IMV (invasive mechanical ventilation) free days alive vs. placebo” value (septic shock patients; [6]) was -6.32 days. The “difference in the number of vasopressor free days alive vs. placebo” value (septic shock patients; [6]) was 0.07 days, the “difference in the number of CRRT (continuous renal replacement therapy) free days alive vs. placebo” value (septic shock patients; [7]) was 0.77 days and the “difference in the number of IMV (invasive mechanical ventilation) free days alive vs. placebo” value (septic shock patients; [7]) was -1.30 days. For the same substance, the “difference in the number of vasopressor free days alive vs. placebo” value (septic shock patients; [7]) was 0.64 days, the “vasopressor use, invasive mechanical ventilation (IMV) use and renal replacement therapy (RRT) use vs. placebo” value (septic shock patients; no statistically significant differences) was “consistent numerical trend in favor of nangibotide” and the “difference in the number of CRRT (continuous renal replacement therapy) free days alive vs. placebo” value (septic shock patients; whole population, 0.3 mg/kg/h) was 4.10 days. For the same substance, the “difference in the number of IMV (invasive mechanical ventilation) free days alive vs. placebo” value (septic shock patients; whole population, 0.3 mg/kg/h) was 2.32 days, the “difference in the number of CRRT (continuous renal replacement therapy) free days alive vs. placebo” value (septic shock patients; whole population, 3 mg/kg/h) was 1.50 days and the “difference in the number of IMV (invasive mechanical ventilation) free days alive vs. placebo” value (septic shock patients; whole population, 3 mg/kg/h) was -2.08 days. The “difference in the number of CRRT (continuous renal replacement therapy) free days alive vs. placebo” value (septic shock patients; [8]) was 2.70 days, the “difference in the number of IMV (invasive mechanical ventilation) free days alive vs. placebo” value (septic shock patients; [8]) was 1.33 days and the “anti-nangibotide antibodies in serum” value [1] was “No anti-nangibotide antibodies were found”.
